In ChEMBL document CHEMBL5465560, “Selectivity Literature for EUbOPEN Chemogenomic Library” (2024):
Values belong to the compound of their own block, whether it stands above or below them.

What was measured:
[1] = target: Sodium-dependent serotonin transporter (Homo sapiens, UniProt P31645); assay: Selectivity interaction (GPCR panel (PDSP screen)) EUB0001079a SLC6A4; conditions: at 10 µM
[2] = target: T1, Bone morphogenetic protein receptor type-2 (Homo sapiens) (UniProt Q13873); assay: Selectivity interaction (Kinase panel (DSF assay)) EUB0001558a BMPR2
T1 sequence (whole entry): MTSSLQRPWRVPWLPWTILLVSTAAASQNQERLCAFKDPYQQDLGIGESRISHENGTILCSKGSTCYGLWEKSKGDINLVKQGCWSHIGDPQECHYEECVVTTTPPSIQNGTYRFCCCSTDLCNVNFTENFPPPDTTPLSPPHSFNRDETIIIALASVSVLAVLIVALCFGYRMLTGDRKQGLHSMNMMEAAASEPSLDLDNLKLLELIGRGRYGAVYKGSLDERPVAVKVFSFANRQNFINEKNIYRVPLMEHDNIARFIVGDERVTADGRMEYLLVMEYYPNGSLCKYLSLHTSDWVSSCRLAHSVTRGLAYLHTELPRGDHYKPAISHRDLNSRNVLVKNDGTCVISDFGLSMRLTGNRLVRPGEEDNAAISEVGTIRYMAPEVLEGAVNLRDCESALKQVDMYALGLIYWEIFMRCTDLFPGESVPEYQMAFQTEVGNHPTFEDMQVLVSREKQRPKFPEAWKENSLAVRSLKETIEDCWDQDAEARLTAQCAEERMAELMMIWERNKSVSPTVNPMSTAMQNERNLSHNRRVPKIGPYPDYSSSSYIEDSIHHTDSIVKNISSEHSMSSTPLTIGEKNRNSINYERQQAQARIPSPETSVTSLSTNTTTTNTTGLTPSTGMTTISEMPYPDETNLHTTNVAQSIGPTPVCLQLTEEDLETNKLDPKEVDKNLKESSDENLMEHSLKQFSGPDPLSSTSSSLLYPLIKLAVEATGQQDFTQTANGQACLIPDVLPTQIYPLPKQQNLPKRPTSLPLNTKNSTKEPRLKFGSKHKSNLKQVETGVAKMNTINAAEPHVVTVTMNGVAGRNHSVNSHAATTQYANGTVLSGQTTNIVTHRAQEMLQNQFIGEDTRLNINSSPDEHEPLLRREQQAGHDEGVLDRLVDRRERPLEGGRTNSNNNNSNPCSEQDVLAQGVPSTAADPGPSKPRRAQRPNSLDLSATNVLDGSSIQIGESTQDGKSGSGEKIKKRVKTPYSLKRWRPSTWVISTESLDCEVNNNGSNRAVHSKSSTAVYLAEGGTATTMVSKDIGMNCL

[3] = target: Mitogen-activated protein kinase kinase kinase kinase 1 (Homo sapiens) (UniProt Q92918); assay: Selectivity interaction (ActivX KiNativ screen (kinase selectivity in THP-1 cell lysates)) EUB0000639a MAP4K1; assay type: subcellular; conditions: lysate, at 1 µM
Sequence of Mitogen-activated protein kinase kinase kinase kinase 1 (Homo sapiens) (Q92918 whole entry, looked up, the tested form may be a part): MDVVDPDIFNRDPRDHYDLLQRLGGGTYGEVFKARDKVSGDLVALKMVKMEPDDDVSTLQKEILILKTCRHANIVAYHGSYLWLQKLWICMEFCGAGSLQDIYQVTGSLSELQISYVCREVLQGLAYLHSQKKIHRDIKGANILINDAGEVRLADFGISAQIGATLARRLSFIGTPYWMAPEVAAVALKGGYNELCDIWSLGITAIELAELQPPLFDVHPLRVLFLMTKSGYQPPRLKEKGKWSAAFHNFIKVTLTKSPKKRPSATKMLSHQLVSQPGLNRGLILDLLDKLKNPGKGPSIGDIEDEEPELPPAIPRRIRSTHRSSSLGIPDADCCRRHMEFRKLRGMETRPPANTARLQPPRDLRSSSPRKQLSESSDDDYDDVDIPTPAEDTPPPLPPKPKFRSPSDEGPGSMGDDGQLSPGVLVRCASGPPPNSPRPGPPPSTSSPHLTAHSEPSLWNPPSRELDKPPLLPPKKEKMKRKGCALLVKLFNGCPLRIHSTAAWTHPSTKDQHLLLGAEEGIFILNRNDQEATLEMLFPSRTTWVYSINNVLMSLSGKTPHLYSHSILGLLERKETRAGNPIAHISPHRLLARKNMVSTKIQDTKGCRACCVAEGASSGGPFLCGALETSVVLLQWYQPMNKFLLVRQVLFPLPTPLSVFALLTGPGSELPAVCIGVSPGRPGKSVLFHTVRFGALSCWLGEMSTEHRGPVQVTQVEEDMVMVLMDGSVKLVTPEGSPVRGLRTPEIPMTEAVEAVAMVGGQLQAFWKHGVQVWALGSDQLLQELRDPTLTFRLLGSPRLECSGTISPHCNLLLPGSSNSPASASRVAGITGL

[4] = target: Zinc finger CW-type PWWP domain protein 1 (Homo sapiens) (UniProt Q9H0M4); assay: Selectivity interaction (PWWP, WD40, and Tudor domain panel (DSLS measurements, literature)) EUB0000270b ZCWPW1
Sequence of Zinc finger CW-type PWWP domain protein 1 (Homo sapiens) (Q9H0M4 whole entry, the tested form may be a part): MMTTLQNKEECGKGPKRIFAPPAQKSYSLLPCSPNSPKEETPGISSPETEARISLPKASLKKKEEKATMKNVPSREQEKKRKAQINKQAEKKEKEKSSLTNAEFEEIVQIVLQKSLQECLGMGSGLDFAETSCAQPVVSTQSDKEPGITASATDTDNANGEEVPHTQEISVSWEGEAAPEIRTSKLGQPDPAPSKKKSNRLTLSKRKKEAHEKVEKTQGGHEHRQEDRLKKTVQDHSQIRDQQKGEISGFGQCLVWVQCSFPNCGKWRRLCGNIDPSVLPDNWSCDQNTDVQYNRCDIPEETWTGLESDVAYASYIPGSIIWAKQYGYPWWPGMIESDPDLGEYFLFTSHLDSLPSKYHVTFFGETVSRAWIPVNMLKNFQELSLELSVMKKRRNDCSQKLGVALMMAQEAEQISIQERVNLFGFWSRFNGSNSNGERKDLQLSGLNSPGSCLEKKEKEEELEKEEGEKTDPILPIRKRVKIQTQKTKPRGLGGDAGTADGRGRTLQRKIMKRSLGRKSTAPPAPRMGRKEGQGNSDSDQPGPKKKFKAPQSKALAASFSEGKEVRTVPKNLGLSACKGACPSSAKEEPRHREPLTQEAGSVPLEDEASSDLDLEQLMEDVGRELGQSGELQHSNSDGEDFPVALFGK

[5] = target: Mitogen-activated protein kinase 3 (Homo sapiens, UniProt P27361); assay: Selectivity interaction (KinomeScan (DiscoverX)) EUB0000092b MAPK3; conditions: at 10 µM
Sequence of Mitogen-activated protein kinase 3 (P27361 whole entry, the tested form may be a part): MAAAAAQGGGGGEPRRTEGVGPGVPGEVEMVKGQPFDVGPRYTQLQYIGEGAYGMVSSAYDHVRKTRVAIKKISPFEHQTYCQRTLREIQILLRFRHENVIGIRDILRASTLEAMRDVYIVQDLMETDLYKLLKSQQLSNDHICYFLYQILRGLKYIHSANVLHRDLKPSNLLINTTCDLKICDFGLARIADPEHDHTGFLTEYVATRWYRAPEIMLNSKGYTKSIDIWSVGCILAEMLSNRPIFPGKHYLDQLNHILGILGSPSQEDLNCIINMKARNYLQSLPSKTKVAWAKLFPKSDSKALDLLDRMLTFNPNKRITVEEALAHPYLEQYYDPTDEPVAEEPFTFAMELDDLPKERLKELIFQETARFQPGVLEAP

[6] = target: T2, Phosphatidylinositol 3-kinase C2 domain-containing subunit gamma (Homo sapiens) (UniProt O75747); assay: Selectivity interaction (KinomeScan (DiscoverX)) EUB0000695a PIK3C2G; conditions: at 100 nM
T2 sequence (whole entry): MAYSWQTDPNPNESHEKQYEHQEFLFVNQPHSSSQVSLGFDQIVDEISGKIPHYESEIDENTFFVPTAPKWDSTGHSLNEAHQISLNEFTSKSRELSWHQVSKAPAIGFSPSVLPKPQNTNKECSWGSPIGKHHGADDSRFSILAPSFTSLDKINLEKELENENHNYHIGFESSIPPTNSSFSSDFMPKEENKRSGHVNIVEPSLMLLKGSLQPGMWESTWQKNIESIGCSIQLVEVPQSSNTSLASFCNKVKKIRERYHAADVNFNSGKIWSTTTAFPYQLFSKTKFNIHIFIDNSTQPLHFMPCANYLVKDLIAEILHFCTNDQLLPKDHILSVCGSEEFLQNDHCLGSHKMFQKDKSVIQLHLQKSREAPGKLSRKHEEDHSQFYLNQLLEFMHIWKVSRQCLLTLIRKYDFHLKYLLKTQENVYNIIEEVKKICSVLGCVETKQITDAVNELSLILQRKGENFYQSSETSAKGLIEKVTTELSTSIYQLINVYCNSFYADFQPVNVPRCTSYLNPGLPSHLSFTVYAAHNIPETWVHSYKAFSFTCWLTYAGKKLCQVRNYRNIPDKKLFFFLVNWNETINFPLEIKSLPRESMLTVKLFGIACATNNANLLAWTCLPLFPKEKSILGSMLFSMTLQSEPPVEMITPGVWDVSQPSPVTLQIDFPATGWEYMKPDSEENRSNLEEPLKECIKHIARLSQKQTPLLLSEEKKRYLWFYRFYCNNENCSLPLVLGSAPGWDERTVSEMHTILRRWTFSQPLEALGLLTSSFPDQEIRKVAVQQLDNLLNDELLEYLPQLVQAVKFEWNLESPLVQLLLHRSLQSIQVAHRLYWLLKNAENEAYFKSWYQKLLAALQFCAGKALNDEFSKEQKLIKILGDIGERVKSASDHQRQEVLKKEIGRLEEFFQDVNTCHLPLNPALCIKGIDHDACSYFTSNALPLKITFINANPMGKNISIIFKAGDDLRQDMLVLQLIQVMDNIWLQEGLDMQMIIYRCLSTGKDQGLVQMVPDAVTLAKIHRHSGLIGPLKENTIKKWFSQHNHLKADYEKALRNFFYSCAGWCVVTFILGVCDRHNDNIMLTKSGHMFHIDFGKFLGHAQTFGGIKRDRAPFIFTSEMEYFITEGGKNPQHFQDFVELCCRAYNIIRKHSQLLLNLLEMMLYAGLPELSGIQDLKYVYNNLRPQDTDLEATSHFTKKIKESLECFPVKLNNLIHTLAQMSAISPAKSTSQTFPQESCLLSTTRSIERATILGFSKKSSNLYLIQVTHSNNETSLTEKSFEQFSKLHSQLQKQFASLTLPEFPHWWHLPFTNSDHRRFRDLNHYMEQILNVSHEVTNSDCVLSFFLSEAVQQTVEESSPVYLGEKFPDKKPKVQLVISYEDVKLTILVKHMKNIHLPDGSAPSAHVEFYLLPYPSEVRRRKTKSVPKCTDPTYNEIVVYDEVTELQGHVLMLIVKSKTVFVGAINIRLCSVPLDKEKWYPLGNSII

Sequence of Sodium-dependent serotonin transporter (P31645 whole entry, looked up): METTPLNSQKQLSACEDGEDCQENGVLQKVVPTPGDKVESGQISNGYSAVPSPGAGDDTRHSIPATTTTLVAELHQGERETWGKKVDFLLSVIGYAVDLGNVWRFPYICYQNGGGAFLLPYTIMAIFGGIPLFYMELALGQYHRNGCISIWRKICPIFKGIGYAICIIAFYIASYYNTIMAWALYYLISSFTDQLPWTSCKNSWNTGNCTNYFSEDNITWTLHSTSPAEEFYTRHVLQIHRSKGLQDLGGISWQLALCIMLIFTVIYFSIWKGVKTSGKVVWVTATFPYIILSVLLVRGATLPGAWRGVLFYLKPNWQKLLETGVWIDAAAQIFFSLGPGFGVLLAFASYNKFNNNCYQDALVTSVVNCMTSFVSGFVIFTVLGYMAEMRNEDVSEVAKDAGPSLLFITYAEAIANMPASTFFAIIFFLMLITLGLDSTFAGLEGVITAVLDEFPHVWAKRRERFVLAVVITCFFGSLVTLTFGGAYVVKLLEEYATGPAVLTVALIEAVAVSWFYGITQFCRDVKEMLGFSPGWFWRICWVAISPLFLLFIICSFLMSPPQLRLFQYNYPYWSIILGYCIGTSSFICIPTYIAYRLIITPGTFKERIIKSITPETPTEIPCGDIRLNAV

Compound: Nc1cnc(N2CCc3cc(S(=O)(=O)Nc4c(F)cc(Cl)cc4F)cc(N4CCCC4=O)c32)nc1 [TP-020n]
% of inhibition [1]: 9.34%

Compound: CC(C)(O)[C@H](F)CN1Cc2cc(NC(=O)c3cnn4cccnc34)c(N3CCOCC3)cc2C1=O
dTM [2]: 2.1 K

% of inhibition [3]: -17.4%
Compound: CC[C@@H]1[C@H](F)C(=O)N[C@@H]1COc1nccc2cc(C(N)=O)c(OC)cc12 [ZIMLOVISERTIB]

dTagg [4]: 0 K
Compound: Cc1cc(CN)cc(C)c1-c1ncn(C)c1-c1cncn1C

Compound: CCC(=O)N1CCN(c2ccc(-n3c(=O)ccc4cnc5ccc(-c6cnc7ccccc7c6)cc5c43)cc2C(F)(F)F)CC1
% of control [5]: 91%

Compound: Cc1cc(F)c(C(=O)Nc2cccc(-c3nncn3C(C)C)n2)cc1-n1cnc(C2CC2)c1
% of control [6]: 87%
